For orientation: melting point means the temperature, or range, at which the solid turns liquid. For `CC[C@@H](NC(=O)N1CC(=O)NCC(Cc2cc(Cl)ccc2OC)C1=O)C(=O)Nc1ccc(C)c(C(=O)O)c1` (stereo not given in full), the melting point was 132 to 134 °C.

The compound `CON1C(=O)CC2(CCN(C(=O)C3=C(C)NC(C)=C([N+](=O)[O-])C3c3ccccc3C(F)(F)F)CC2)C1=O` (stereo not given) came in with a melting point of 261 to 263 °C.

Compound `Cn1cc(-c2cc(-c3cnc4[nH]ccc4c3)ccn2)n(-c2ccc(C(C)(C)C#N)cc2)c1=O` returned a melting point of 248 °C.

For the compound `CC(=O)OC1CSC(Oc2cncc(I)c2)C(OC(C)=O)C1OC(C)=O` (stereo not given), the melting point fell in the range of 148 to 150 °C.

`CCCc1nc2c(N)nc3cc(OCCCCCCNC(=O)c4ccc(N=[N+]=[N-])cc4O)ccc3c2s1` showed a melting point of 127 to 128 °C.

Take `O=[N+]([O-])c1ccc(S(=O)(=O)CCCl)cc1`: the melting point is 130 °C.

`CCOC(=O)C1=C(C)NC(C#N)=C(C(=O)OCC)C1c1ccccc1C(=O)OC` (stereo not given) had a melting point of 126 to 127 °C.

With `Cc1c(CC(=O)N[C@@H](CO)C(=O)O)cc(-c2ccc(S(C)(=O)=O)cc2)n1-c1ccc(F)cc1`, the melting point is 120 °C.

Take `Cn1cncc1C(O)(c1ccoc1)c1ccc2c(c1)c(-c1cccc(Cl)c1)cc(=O)n2C` (stereo not given): the melting point was found to be 248 °C.

Regarding `COC(=O)c1ccc(OCCCCC2Cc3c(c(OC)c(OC)c(OC)c3OC)C2)cc1`, the melting point lay in the range of 68 to 71 °C.

Regarding `CC(Oc1ccc(-c2ccc(Cl)cc2Cl)cc1)C(O)CCc1cccnc1` (stereo not given), the melting point fell in the range of 98 to 100 °C.

Turning to `CC#CCOc1ccc([S@](=O)[C@@H](CCCCCC)C(=O)O)cc1`, the melting point is 112 °C.

Consider `Cc1oc(-c2ccccc2)nc1COc1nn(Cc2ccc(Oc3ccccc3)cc2)cc1/C=C/C(=O)O`, for which the melting point lay in the range of 210 to 211 °C.

Consider `ClCCN1C2C=C(c3ccc4ccccc4c3)CC1CC2` (stereo not given), for which the melting point was 122 to 123 °C.

Turning to `COC(=O)c1cc([N+](=O)[O-])ccc1-c1c(OC)cccc1OC`, the melting point turned out to be 157 °C.

As for `CCCCOc1nc(N)nc2c1ncn2C1C=CC(CO)C1` (stereo not given), the melting point lay in the range of 122 to 123 °C.

Turning to `CC(C#N)(COc1ccc(Cl)cc1)S(=O)(=O)Cc1ccc(Cl)cc1` (stereo not given), the melting point lay in the range of 119 to 120 °C.

Consider `CC(=O)Nc1ccc2c(c1)NC(=O)C(CCCN1CCN(c3ccc(F)cc3)CC1)O2` (stereo not given), for which the melting point is 111 to 112 °C.

Consider `CSc1ccc(C(O)(c2ccc(Cl)cc2)C2CCN(CCO)C2=O)cc1` (stereo not given), for which the melting point amounted to 141 °C.

On to `C=CCc1c(OCCCOc2ccc(C(C)=O)c(O)c2CCC)ccc2oc(C(=O)O)cc12`, for which the melting point lay within 157 to 158 °C.

`CCCn1nc(-c2c(-c3ccccc3)nn3ccc(OC)cc23)ccc1=O` yielded a melting point of 174 °C.

Turning to `Nc1cc(-n2cc(C(=O)O)c(=O)c3cc(F)c(F)c(Cl)c32)ncc1F`, the melting point came out at 280 °C.

`COC(=O)c1ccc(-c2ccc3c(c2)C=C(C(=O)Nc2ccc(CN(C)C4CCOCC4)cc2)CCC3)cc1` came in with a melting point of 176 to 183 °C.

On to `COc1ccc(-c2ccc3c(c2)CC[C@H]2N(C)C(=O)CC[C@]32C)cc1OC`, for which the melting point fell in the range of 108 to 112 °C.

The compound `CN1CCN(C(=O)OC2C3=C(SCCS3)C(=O)N2c2ccc3ccc(Cl)cc3n2)CC1` (stereo not given) had a melting point of 192 °C.

`O=S(=O)(CCl)N(Cc1cccnc1)C1CCCCC1` yielded a melting point of 67 to 72 °C.

Compound `O=C(Cc1ccccc1)Oc1cc(=O)n(-c2ccccc2)c2ncccc12` returned a melting point of 179 to 180 °C.

In the case of `Nc1cccnc1Nc1ccccc1C(=O)c1ccc(Cl)cc1`, the melting point is 145 to 146 °C.

In the case of `COc1cc2c(c(Cl)c1Cl)SC(C(C)C)C2O` (stereo not given), the melting point lay within 119 to 123 °C.

In turn, `CC(C)(C)c1cc(C(=O)NN)cc(C(C)(C)C)c1O` had a melting point of 187 to 188 °C.

For the compound `O=[N+]([O-])c1cccc(Oc2nccnc2Cl)c1`, the melting point was in the range of 119 to 121 °C.

For `NS(=O)(=O)c1cccc2cncn12`, the melting point lay within 148 to 151 °C.

In turn, `CC(=O)OC1CSC(Oc2ccnc(-c3cccnc3)c2)C(OC(C)=O)C1OC(C)=O` (stereo not given) yielded a melting point of 185 °C.

On to `COc1c(-c2ccccc2)csc1-c1cnn2c(O)ccnc12`, for which the melting point is 234 to 236 °C.

As for `NC(=NO)c1ccncc1`, the melting point was 203 to 205 °C.

Compound `O=C(Cc1cccnc1)c1ccc(Cl)cc1Cl` showed a melting point of 55 to 56 °C.

`O[C@H]1COC(c2cc3ccccc3[nH]2)=N[C@@H]1c1ccccc1` (racemic) had a melting point of 204 °C.

For the compound `CCCCCC(=O)Nc1ccc2scc(Cc3ccc(C(=O)O)cc3OC)c2c1`, the melting point was 234 to 235 °C.

On to `O=C1C(=O)c2ccccc2C2=C1SCC1(CCN(CCOc3ccc(Cl)cc3)CC1)O2`, for which the melting point was in the range of 131 to 133 °C.

Compound `CN1C(=O)CC[C@]2(C)c3ccc(-c4ccc(Oc5ccccc5)cc4)cc3CC[C@@H]12` showed a melting point of 148 to 150 °C.

Regarding `COc1cc2ncnc(Nc3ccc(F)c(Cl)c3)c2cc1OCCCC1OCCO1`, the melting point is 170 to 171 °C.

`O=C(NC(c1ccccc1)c1cc2ccncc2[nH]1)c1ccncc1` (stereo not given): the melting point is 182 to 192 °C.

`CN(C)CCCOc1ccc(C(=O)NN)cc1`: the melting point lay within 79.5 to 81 °C.

Consider `COC(=O)c1cnc(N2CCN(c3nc4ccc(C(F)(F)F)cc4[nH]3)CC2)c(Cl)c1`, for which the melting point was 153 to 159 °C.

Take `CCOCC(O)(COCC)C(Cc1ccc2ccccc2c1)[N+](=O)[O-]` (stereo not given): the melting point amounted to 87 °C.

Turning to `O=C1OCCC12Sc1ccc(Cl)cc1C2=O` (stereo not given), the melting point fell in the range of 143 to 144 °C.

`CC(=O)NC[C@H]1CN(c2ccc(-c3noc(C(F)(F)F)n3)c(F)c2)C(=O)O1`: the melting point was in the range of 192 to 193 °C.

Turning to `CC(=CC(=O)c1ccc(C(=O)N2Cc3cccn3Cc3ccccc32)cc1)N(C)C`, the melting point fell in the range of 183 to 185 °C.

In turn, `O=C(Nc1ccccc1)OC1CCN(C(=O)c2ccc(F)cc2)C1` (stereo not given) came in with a melting point of 173 to 175 °C.

Consider `CCOC(=O)C1CNc2ccc([N+](=O)[O-])cc2O1` (stereo not given), for which the melting point lay in the range of 130 to 132 °C.

The compound `O=C1OC(=O)c2c1cccc2-c1ccccc1` yielded a melting point of 148 to 149 °C.

On to `CNC(=O)N(O)C(C)c1ccc(Cl)c(C)c1` (stereo not given), for which the melting point fell in the range of 99 to 102 °C.

`O=C(O)CCCc1cc2cc(C(F)(F)F)ccc2n1S(=O)(=O)c1ccc2c(c1)CCO2` registered a melting point of 144 to 149 °C.

On to `COc1ccnc2c(S(=O)c3nc4ccccc4[nH]3)cccc12` (stereo not given), for which the melting point fell in the range of 178 to 179 °C.

In turn, `Cn1c(=O)[nH]c2ccc(-c3cccc([N+](=O)[O-])c3)cc21` registered a melting point of 264 to 265 °C.

For the compound `O=S(c1ncccn1)c1cccc2cccnc12` (stereo not given), the melting point lay within 152 to 155 °C.

`N#CC1=CC(CF)(CF)Oc2ccc([N+](=O)[O-])cc21` gave a melting point of 136 to 137 °C.

As for `CN1C2CCC1CC(NC(=O)c1cccc3nc(-c4ccccc4)oc13)C2` (stereo not given), the melting point fell in the range of 164 to 166 °C.

As to `Cc1cn(-c2cc(C#N)cc(C(F)(F)F)c2)cn1`, the melting point lay within 127 to 128 °C.

For the compound `O=[N+]([O-])c1cccc(-c2cc3c(Cl)ncnc3o2)c1`, the melting point lay within 196 to 205 °C.

Regarding `CCN(CC)C(=O)c1ccoc1-c1ccc(N(C)C)cc1`, the melting point fell in the range of 73 to 74 °C.

Take `O=C(O)c1cnn(O)c1`: the melting point is 230 °C.

`O=[N+]([O-])c1ccc(N=Nc2ccc(O)c(CO)c2)cc1`: the melting point is 178 to 179 °C.

On to `CCCc1c(OCCCOc2ccc3c(=O)cc(-c4ccc(C(=O)O)cc4)oc3c2CCC)ccc(C(C)=O)c1O`, for which the melting point lay within 226 to 228 °C.

The compound `CCCCc1cc(NCc2ccc(-c3ccccc3C#N)cc2)n2nccc2n1` yielded a melting point of 200 to 202 °C.

`CC(=O)N1c2ccc(F)cc2CC1C(N)=O` (stereo not given) came in with a melting point of 232 to 235 °C.

As for `CC(=O)O[C@@H]1CN2C(=O)N(c3cc(Cl)cc(Cl)c3)C(=O)[C@]2(Cc2ccc(Br)cc2)C1`, the melting point worked out at 150 °C.

As for `O=c1c2ccc(Cl)cc2[nH]c2c(O)nn(Cc3ccccc3F)c(=O)c12`, the melting point was determined as 215 °C.

`Cc1nc(N2CCN(Cc3ccc(F)cc3)C2=O)sc1C(=O)NCCN1CCCC1` came in with a melting point of 183 to 184 °C.

`CS(=O)(=O)c1c(F)nc(F)nc1F` gave a melting point of 103 to 105 °C.

`Cc1nn2ccccc2c1C1=NNC(=O)CC1C` (stereo not given) came in with a melting point of 146 to 147 °C.

With `COCCOc1cc(NS(=O)(=O)c2ccccn2)c2[nH]c(C3=NCC(CN4CCS(=O)(=O)CC4)S3)cc2c1` (stereo not given), the melting point is 218 to 219 °C.

Compound `CCOC(=O)c1cn(-c2cnsn2)c2cc(F)c(F)cc2c1=O` came in with a melting point of 189 to 192 °C.

`CCCCOc1c(NCCCBr)c(=O)c1=O` registered a melting point of 56 to 57 °C.

Turning to `CC(O)C(CCCc1ccccc1)n1cnc(C(N)=O)c1N` (stereo not given), the melting point worked out at 132 °C.

In the case of `COC(=O)Cc1ccc2oc(=S)[nH]c2c1`, the melting point lay in the range of 120 to 122 °C.

The compound `COc1c(F)cc2c(=O)c(C(=O)O)cn3c2c1CCC3C` (stereo not given) showed a melting point of 234 to 236 °C.

In turn, `COC(=O)c1ccccc1Nc1cccc(C(C)O)c1Cl` (stereo not given) had a melting point of 94 to 95 °C.

`CC(=O)Nc1ccc(C(=O)NC(=O)N2CCC(Cc3ccc(F)cc3)CC2)cc1`: the melting point lay within 156 to 171 °C.

`O=C1O[C@H](C(O)O)CCN1Cc1ccccc1` yielded a melting point of 120 °C.

Take `CCOC(=O)C(C)Oc1ncn(-c2ccc(Br)cc2)n1` (stereo not given): the melting point lay in the range of 64 to 66 °C.

`Cc1ccc(Nc2nc(-n3nc(C)cc3C)nc3ccccc23)cc1` yielded a melting point of 210 to 216 °C.

In turn, `COc1cccc(N2CCN(C[C@H]3COc4ccc5nc(C)ccc5c4O3)CC2)c1` gave a melting point of 90 to 91 °C.

In turn, `Cc1cc(-c2cccc(C(F)(F)F)c2)nn2cnnc12` gave a melting point of 181 to 183 °C.

Compound `Cn1ccnc1C(C)(C)O` returned a melting point of 128 to 129 °C.

The compound `O=S(=O)(c1ccccc1)C1CCCC2(C1)OCCO2` (stereo not given) came in with a melting point of 93 to 95 °C.

For the compound `C/C(=C\c1cccc2ccccc12)C(=O)O`, the melting point was found to be 155 °C.

`CC(=O)N(O)Cc1cccc(C#Cc2ccccc2)c1` gave a melting point of 91 to 93 °C.

Consider `O=C(N[C@H]1CC[C@H](CCN2CCN(c3nccc4c3CCO4)CC2)CC1)c1ccc2c(c1)OCO2`, for which the melting point was 244 °C.

Compound `CC(=O)c1nccc(-c2ccc(Oc3ccc(F)cc3)cc2)n1` returned a melting point of 61 to 63 °C.

The values above are taken from a melting point compilation (Tetko et al.; mined from patent text by program, amines drawn as free bases though some values may be those of a salt).
